{"source": "paper PMC9304322", "about": "“Targeting retinoic acid receptor alpha-corepressor interaction activates chaperone-mediated autophagy and protects against retinal degeneration” (Nature Communications, 2022)", "key": {"lamp2a mRNA": {"test_system": "lamp2a mRNA", "assay": "lamp2a mRNA in hippocampus of treated KFERQ-Dendra mice", "type": "in vivo, mouse", "conditions": "for Fig. 3e value relative to Vehicle: single replicate values, one sample t test; for mRNA levels of lamp2a (Fig. 4d), individual mice / mRNA levels of lamp2a (Fig. 4d), mean: hippocampus, i.p. 30 mg/kg bw daily for three days, vehicle mean = 1.000; for mRNA levels of lamp2a (Fig. 4d), individual mice: 30 mg/kg; for mRNA levels of lamp2a (Fig. 4d), mean: n = 4 mice", "description": "(§1) C57BL/6 J mice wild-type (WT) and homozygous for the Pde6 mutation (rd10 mouse model of retinal degeneration) were obtained from The Jackson Laboratory and experiments were performed at the age indicated in each part of the study. C57BL/6 KFERQ-Dendra mice were generated by back-crossing FVB KFERQ-Dendra mice with wild-type C57BL/6 mice for 8 generations. Both male and female animals were used in this study in equally distribution groups. However, results from both sexes were pooled, because of absence of significant differences in any of the parameters analyzed after statistical analysis with a mixed model of two-way ANOVA sex and treatment as independent variables and the corresponding measure as dependent variable. All animals were housed in a barrier-controlled facility (19–23 °C 30–60% relative humidity; 12 h light/dark cycle) with ad libitum access to standard chow pellets (protein 19 gm%/carbohydrate 67 gm%/fat 4 gm%) and water. For animal administration of CA compounds, a formula containing 30% PEG 400 (Sigma, #8.0745), 65% of 5% glucose solution, 5% Tween 80 (Sigma, #P1754) was used to dissolve them. CA compounds were prepared freshly by adding 5% DMSO and sonicating for 1 h. Treatment of KFERQ-Dendra mice with the CA compounds was done at 4 months of age by i.p. daily injection of 30 mg/kg bw or vehicle for three consecutive days and tissues collected 6 h after the last injection. In the case of rd10 mice, animals were daily injected from P18 to P25 with CA77 (40 mg/kg bw). In the case of intravitreal administration, a single intravitreal injection was applied at P18 with CA77 (40 µM) in DMSO/PBS and the contralateral eye was injected with PBS and DMSO at same concentration. At P26, mice were sacrificed and eyes fixed overnight with 4% PFA (Sigma, #P6148) in PBS at 4 °C for immunofluorescence or retinas dissected and immediately frozen for biochemistry. Distribution of animals in the vehicle or treatment group was done randomly. ICR (CD-1) outbred 3 months old male mice from ENVIGO were used for the pharmacokinetic studies (see pharmacokinetic section for housing and handling details). All animal studies and procedures complied with ethical regulations, were performed in accordance with the European Union guidelines and the ARVO Statement for the Use of Animals in Ophthalmic and Vision Research and were approved by the Institutional Animal Care and Use Committee at the Albert Einstein College of Medicine, the CSIC Bioetica Comite and approved by the Comunidad de Madrid, PROEX232/17.\nRNA was extracted from individual retinas or tissue sections (brain, liver). Total RNA from retinas was extracted using TRIzol Reagent (Invitrogen, # 15596-018), and reverse transcription was performed using the High-Capacity cDNA Reverse Transcription Kit (Applied Biosystems, # 4374966) according to the manufacturer’s instructions. Quantitative real-time PCR was performed in a Light Cycler 480 Instrument (Roche) with Taqman LightCycler 480 probes Master Mix (Roche, #4887301001) using Taqman assays (Life Technologies). For cells in culture, RNA was extracted using RNeasy Plus Mini Kit (Qiagen, #74034), and reverse transcription was performed using Superscript III (Invitrogen, #18080051). Quantitative RT-PCR analysis were performed using Power SYBR Green PCR Master Mix (Applied Biosystems, #4368708) on a StepOne Plus Real-Time PCR System (Applied Biosystems). Mm01184405_m1 probe (Thermofisher) was used for rhodopsin and the sequence of all the other probes used for qPCR is included in Supplementary Table 2."}, "rd10 mice [1]": {"test_system": "rd10 mice", "conditions": "mouse, in vivo, ip, 40 mg/kg"}, "rd10 mice [2]": {"test_system": "rd10 mice", "assay": "rd10 mice, daily i.p. injection, retina histology and biochemistry", "type": "in vivo, mouse", "conditions": "daily i.p. 40 mg/kg bw, P18 to P25", "description": "as §1\n(§2) 12 μm cryosections and immunofluorescence in retinal sections[10] after orienting retinas with a dorsal mark, so comparisons were performed taking into account the precise retinal area. Primary antibodies used in this study were visual (rod) arrestin, cone arrestin, Opsin R/G, transducin, GFAP, N-CoR1. Sections were visualized by confocal microscopy (TCS SP5; Leica Microsystems).\n(§3) For ONL thickness quantification, DAPI images were taken at 40X in a fluorescence microscope Multidimensional system Leica AF6000 LX coupled to DMI600B microscope and Hamamatsu CCD 9100-O2 camera. At least two sections per animal were analyzed, preferably central sections. Eight images per retina equally distributed along the retina were acquired. Three measures were taken per image and ratio ONL/INL quantified with ImageJ tools. Leica LAS-X (3.7.4.23463) was used for image acquisition and ImageJ (v.2.1.0) was used for image processing. For OS length measures, fixed positions common to all pictures were considered and OS length was measured using ImageJ straight line tool.\nRNA was extracted from individual retinas or tissue sections (brain, liver). Total RNA from retinas was extracted using TRIzol Reagent (Invitrogen, # 15596-018), and reverse transcription was performed using the High-Capacity cDNA Reverse Transcription Kit (Applied Biosystems, # 4374966) according to the manufacturer’s instructions. […]"}, "rd10 mice [3]": {"test_system": "rd10 mice", "assay": "rd10 mice, single intravitreal injection, retina histology", "type": "in vivo, mouse", "description": "as §1, §2, §3\nEyes were enucleated, put in a plate with cold PBS and an incision was made under the microscope to let the fixative enter into the eye. […]"}, "[4]": {"assay": "In vitro stability in human liver microsomes", "type": "in vitro ADME", "conditions": "in words", "description": "In vitro solubility in the following conditions A) HBSS/HEPES 10 mM/BSA 0.1% pH 6 B) HBSS/HEPES 10 mM/BSA 0.1% pH 7.4 C) TRIS/BSA 0.1% PBS (pH 7.4 and at indicated doses were measured by Nephelometry using the NEPHELOstar Galaxy apparatus (BMG Lab Technologies). In vitro stability in human, mouse and rat liver microsomes and permeability using a bidirectional permeability assay with CaCo-2 cells (pH 6.5/7.4) assays were performed with standard methodology and analyzed by LC-MS/MS. at SIMM-SERVIER joint Biopharmacy Laboratory. ADME properties for CA39 and CA77 were predicted by QikProp (Schrödinger, LLC, Releases 2016-2020) software."}, "[5]": {"conditions": "rd10 mice, 7 days after a single intravitreal injection (40 µM) at P18"}, "[6]": {"conditions": "rd10 mice, individual values and Mean CA77"}}, "note": "Where “and” joins values, the source holds several entries; their conditions need not be identical. Equal entries are not always repeated.", "data": [{"smiles": "CC(=O)Nc1ccc(C2=Nc3ccc(Cl)cc3OC2)cc1", "note": "[CA77]", "values": [{"measurement": "Fig. 3e value relative to Vehicle", "setting": "lamp2a mRNA", "result": "2.04 and 2.28 and 1.87 and 1.53 and 2.54 and 2.31"}, {"measurement": "mRNA levels of lamp2a (Fig. 4d), individual mice", "setting": "lamp2a mRNA", "result": "1.395 and 1.349 and 1.27 and 1.907"}, {"measurement": "mRNA levels of lamp2a (Fig. 4d), mean", "setting": "lamp2a mRNA", "result": 1.480}, {"measurement": "ERG amplitude of b-mixed, b-phot and flicker waves", "setting": "rd10 mice [1]", "result": "significantly higher amplitude"}, {"measurement": "expression levels of NCOR1", "setting": "rd10 mice [2]; WT and rd10 mice", "result": "did not change the expression levels of NCOR1"}, {"measurement": "mRNA levels of photoreceptor-specific proteins (rhodopsin)", "setting": "rd10 mice [2]; rd10 mice", "result": "Higher mRNA levels of photoreceptor-specific proteins"}, {"measurement": "outer nuclear layer (ONL) thickness", "setting": "rd10 mice [2]; rd10 mice", "result": "significantly thicker outer nuclear layers"}, {"measurement": "retinal GFAP levels", "setting": "rd10 mice [2]; rd10 mice", "result": "strikingly lower levels of GFAP"}, {"measurement": "retinal L2A levels by immunoblot", "setting": "rd10 mice [2]; rd10 mice", "result": "significantly increasing retinal levels of the limiting CMA component"}, {"measurement": "length of the outer segments of photoreceptors", "setting": "rd10 mice [2]; rd10 mice, vs vehicle", "result": "increased length of the outer segments of photoreceptors"}, {"measurement": "ONL/INL", "setting": "rd10 mice [3]; Fig. S9c, individual animals", "result": "0.8086 and 0.8292 and 0.9847"}, {"measurement": "ONL/INL, mean", "setting": "rd10 mice [3]; Fig. S9c, mean, veh 0.676", "result": 0.8578}, {"measurement": "%functional cones", "setting": "rd10 mice [3]; Fig. S9d, individual animals", "result": "28.972% and 50% and 24.2991% and 28.7037% and 13.3929% and 16.5289% and 21.8182%"}, {"measurement": "%functional cones, mean", "setting": "rd10 mice [3]; Fig. S9d, mean, veh 10.94", "result": 26.24, "unit": "%"}, {"measurement": "gliosis", "setting": "rd10 mice [3]; [5]", "result": "significatively improved"}, {"measurement": "retinal ONL/INL ratio", "setting": "rd10 mice [3]; [5]", "result": "thicker retinal ONL/INL ratio"}, {"measurement": "Fig. 7a, retinal measurement by eccentricity, eccentricity 1", "setting": "rd10 mice [3]; [6]", "result": 0.3526}, {"measurement": "Fig. 7a, retinal measurement by eccentricity, eccentricity 2", "setting": "rd10 mice [3]; [6]", "result": 0.3984}, {"measurement": "Fig. 7a, retinal measurement by eccentricity, eccentricity 3", "setting": "rd10 mice [3]; [6]", "result": 0.5851}, {"measurement": "Fig. 7a, retinal measurement by eccentricity, eccentricity 4", "setting": "rd10 mice [3]; [6]", "result": 0.8477}, {"measurement": "Fig. 7a, retinal measurement by eccentricity, eccentricity -1", "setting": "rd10 mice [3]; [6]", "result": 0.3423}, {"measurement": "Fig. 7a, retinal measurement by eccentricity, eccentricity -2", "setting": "rd10 mice [3]; [6]", "result": 0.3489}, {"measurement": "Fig. 7a, retinal measurement by eccentricity, eccentricity -3", "setting": "rd10 mice [3]; [6]", "result": 0.5902}, {"measurement": "metabolic stability with human liver microsomes", "setting": "[4]", "result": "high to intermediate"}]}, {"smiles": "Clc1ccc2c(c1)OCC(c1ccc(-c3ccccc3)cc1)=N2", "note": "[CA39]", "values": [{"measurement": "Fig. 3e value relative to Vehicle", "setting": "lamp2a mRNA", "result": "1.07 and 1.28 and 1.20 and 1.32 and 1.95 and 2.13"}, {"measurement": "mRNA levels of lamp2a (Fig. 4d), individual mice", "setting": "lamp2a mRNA", "result": "1.581 and 1.814 and 1.628 and 1.163"}, {"measurement": "mRNA levels of lamp2a (Fig. 4d), mean", "setting": "lamp2a mRNA", "result": 1.547}, {"measurement": "metabolic stability with human liver microsomes", "setting": "[4]", "result": "high to intermediate"}]}]}
